Test results as given in patent publication US10441599B2, “Pharmaceutical composition containing Ginkgolide B and blood platelet prostaglandin cyclooxygenase inhibitor and method for preparation thereof and use thereof” (priority 2014, dated 2019).

What was measured:
Format in all cases: in vivo, Japanese large-ear white rabbits
[1] = tested on: rabbit platelet factor 4 (PF-4); experiment: Determination of PF-4 level in serum (ELISA) after PAF induction; conditions: for PF-4 level: rabbits 5.0 mg/kg once daily 7 days, serum after PAF induction, x ± s, n = 8
Excerpt: (§1) 128 Japanese large-ear white rabbits with a weight of (2.0±0.2) kg, half male and half female, were provided by Chongqing Medical University Experimental Animal Center [animal certification number: XCXK (Yu) 20020001]. […] ELISA kit (FOCUS, lot number: 20130301). TYXN-96 multifunctional intelligent aggregometer (Shanghai General Technique Research Institute); Scanning electron microscope […]-800 Absorbance Reader (BioTek Instruments, Inc.). 128 Japanese large-ear white rabbits were randomly assigned to 16 groups, with 8 rabbits in each group: […] All groups were administered with a clinically used route and dosage for 7 days continuously. […] The plasma was rested at 4° C. for 4 hours, and 200 μL of serum was taken for detection. The specific operation is carried out according to the kit specification, and the result was read by the Absorbance Reader.

[2] = tested on: rabbit β-thromboglobulin (β-TG); experiment: Determination of β-TG level in serum (ELISA) after PAF induction; conditions: for level of β-TG compared with the saline group: p<0.01, p<0.05; for β-TG level: rabbits 5.0 mg/kg once daily 7 days, serum after PAF induction, x ± s, n = 8
Excerpt: as §1

[3] = tested on: rabbit platelet aggregation induced by PAF; experiment: Platelet aggregation rate induced by PAF in platelet-rich plasma of dosed rabbits; conditions: for Platelet aggregation inhibition rate (%) / platelet aggregation rate, 1 min / platelet aggregation rate, 5 min / maximum platelet aggregation rate (MAX): rabbits 5.0 mg/kg once daily 7 days; for Platelet aggregation inhibition rate (%) / maximum platelet aggregation rate (MAX): PAF-induced; for Platelet aggregation inhibition rate (%): relative to saline group; for platelet aggregation rate, 1 min / platelet aggregation rate, 5 min / maximum platelet aggregation rate (MAX): PRP, x ± s, n = 8; for platelet aggregation rate, 1 min: 1 min after addition of 10 μL PAF; for platelet aggregation rate, 5 min: 5 min after addition of 10 μL PAF; for maximum platelet aggregation rate comparing with the saline group: under the induction of PAF, p<0.01, p<<0.05
Method: 128 Japanese large-ear white rabbits with a weight of (2.0±0.2) kg, half male and half female, were provided by Chongqing Medical University Experimental Animal Center [animal certification number: XCXK (Yu) 20020001].
Platelet activation factors (PAF) (cayman, lot number: 011219) was dissolved in the Tris-NaCl solution containing 0.25% of calf serum albumin at a pH of 7.6, to a final concentration of 3.6 nmoL/L; sodium citrate (Beijing Zhongshanjinqiao Biotechnology Company, lot number: 20130117) dissolved in the distilled water with 3.8% concentration; rabbit β-thromboglobulin (β-TG) ELISA kit (FOCUS, lot number: 20130224), rabbit platelet factor 4 (PF-4) (lot number: ELISA kit (FOCUS, lot number: 20130301). TYXN-96 multifunctional intelligent aggregometer (Shanghai General Technique Research Institute); Scanning electron microscope S-3000 N (Hitachi Limited); ELX-800 Absorbance Reader (BioTek Instruments, Inc.).
128 Japanese large-ear white rabbits were randomly assigned to 16 groups, with 8 rabbits in each group: (1) Saline group, (2) Ginkgolide B group, (3) Aspirin group, (4) Jinnaduo group, (5) Composition 1 group, (6) Composition 2 group, (7) Composition 3 group, (8) Composition 4 group, (9) Composition 5 group, (10) Composition 6 group, (11) Composition 7 group, (12) Composition 8 group, (13) Composition 9 group, (14) Composition 10 group, (15) Composition 11 group, (16) Composition 12 group. All groups were administered with a clinically used route and dosage for 7 days continuously.
After 7 days of administration, 10.5 ml of blood was taken from the heart of each animal, wherein 1.5 ml of plasma was used for taking serum and the rest 9 ml of plasma was subjected to 3.8% sodium citrate at 1:9 for anticoagulation, centrifuging for 10 minutes at 800 r/min, and taking the supernatant to obtain platelet-rich plasma (PRP).), wherein 100 μl of the PRP was taken for electron microscope examination, and the rest of the PRP was used for detecting of the platelet aggregation rate; the remaining portion was centrifuged for 15 min at a speed of 3000 r/min, and platelet-depleted plasma (PPP) was obtained. PPP was used to adjust the number of platelet in PRP, to be at 360×10^9/L. The platelet aggregation rate and maximum platelet aggregation rate was studied and recorded after 1 min, 5 min of addition of 10 μL of PAF.
The statistical analysis is carried out using SPSS 18.0 software, and the platelet aggregation rates, the percentage of types of platelet morphology and the concentration of PF-4 and β-TG were analyzed using two-sample t-test. P-values<0.05 were considered statistically significant.

[4] = tested on: platelets (morphology types after PAF); experiment: Scanning electron microscopy study of platelet morphology after addition of PAF; conditions: for Types of morphology (%): Aggregated / Types of morphology (%): Circle / Types of morphology (%): Flat / Types of morphology (%): Tree like: rabbits 5.0 mg/kg once daily 7 days, PRP + PAF, SEM, 100 platelets, x ± s, n = 8; for Aggregated type platelets under scanning electron microscope: under induction of PAF, 2000-fold SEM
Method: 128 Japanese large-ear white rabbits with a weight of (2.0±0.2) kg, half male and half female, were provided by Chongqing Medical University Experimental Animal Center [animal certification number: XCXK (Yu) 20020001]. 128 Japanese large-ear white rabbits were randomly assigned to 16 groups, with 8 rabbits in each group: […] All groups were administered with a clinically used route and dosage for 7 days continuously. […] The types of platelet under the electron microscope includes: […] (3) Flat type has a dense core in the center and a wide transparent peripheral zone which has a smooth periphery or small bulges. (4) Aggregated-type is usually composed of several to dozens of platelets, with different sizes of the aggregates, wherein the platelets are mutually connected, some of the platelets are integrally fused into a whole, and the foot processes of the peripheral part are prominent.

Structure (SMILES) | PF-4 level [1] | level of β-TG compared with the saline group [2] | β-TG level [2] | Platelet aggregation inhibition rate (%) [3] | platelet aggregation rate, 1 min [3] | platelet aggregation rate, 5 min [3] | maximum platelet aggregation rate (MAX) [3] | maximum platelet aggregation rate comparing with the saline group [3] | Types of morphology (%): Aggregated [4] | Types of morphology (%): Circle [4] | Types of morphology (%): Flat [4] | Types of morphology (%): Tree like [4] | Aggregated type platelets under scanning electron microscope [4] | level of PF-4 compared with the saline group ([1]; p<0.01, p<0.05)
CC(=O)Oc1ccccc1C(=O)O [Aspirin, acetylsalicylic acid] | 1.489 ± 0.228 µg/mL | didn't decrease significantly | 1.504 ± 0.244 µg/mL | 31.53% | 25.28 ± 5.06 | 36.89 ± 5.53 | 48.08 ± 5.87 | significant difference | 54.0 ± 14.3 % | 5.8 ± 2.6% | 25.5 ± 8.4 % | 14.7 ± 7.0 % | increased number of Aggregated type platelets | 
CC1C(=O)OC2C(O)C34C5CC(C(C)(C)C)C36C(OC(=O)C6O)OC4(C(=O)O5)C12O (stereo not drawn) [Ginkgolide B] | 1.264 ± 0.215 µg/mL | decreased significantly | 1.247 ± 0.184 µg/mL | 44.66% | 21.36 ± 4.15 | 33.54 ± 5.48 | 38.86 ± 4.74 | significant difference | 22.3 ± 9.6 % | 31.6 ± 6.4 % | 46.1 ± 8.3 % | 15.8 ± 6.8 % | rarely seen | decreased significantly
